From ChEMBL document CHEMBL1153010, “Effect of conjugates of all-trans-retinoic acid and shorter polyene chain analogues with amino acids on prostate cancer cell growth” (Eur J Med Chem, 2009)
Calls of active or inactive are those of the source. No cut-off for these calls is given here.

Columns and labels:
LNCaP [1] = assay: Antiproliferative activity against human LNCAP cells after 48 hrs by MTT assay; assay type: functional, cell-based
LNCaP [2] = assay: Effect on morphology in human LNCAP cells assessed as elongation of cells by phase-contrast microscopy; assay type: functional, cell-based
LNCaP [3] = assay: Cell cycle arrest in human LNCAP cells assessed as accumulation at G2/M phase after 48 hrs by flow cytometry; assay type: functional
LNCaP [4] = assay: Cell cycle arrest in human LNCAP cells assessed as accumulation at G0/G1 phase after 48 hrs by flow cytometry; assay type: functional
LNCaP [5] = assay: Antiproliferative activity against human LNCAP cells assessed as maximal effect at 10 uM after 48 hrs by MTT assay; assay type: functional, cell-based
LNCaP [6] = assay: Cell cycle arrest in human LNCAP cells assessed as accumulation at S phase after 48 hrs by flow cytometry; assay type: functional
LNCaP [7] = assay: Antiproliferative activity against human LNCAP cells after 48 hrs by MTT assay in the presence of 1 uM RARalpha selective antagonist Ro415253; assay type: functional, cell-based

Row | Compound | Activity (LNCaP [1]) | Activity (LNCaP [2]) | IC50 (LNCaP [1]) | Activity (LNCaP [3]) | Activity (LNCaP [4]) | Activity (LNCaP [5]) | Activity (LNCaP [6]) | Activity (LNCaP [7])
1 | CC1=C(/C=C/C(C)=C/C=C/C(C)=C/C(=O)NCCCCCC(=O)O)C(C)(C)CCC1 | inactive | Active | – | – | – | – | – | –
2 | CC1=C(/C=C/C(C)=C/C=C/C(C)=C/C(=O)N[C@@H](CC(C)C)C(=O)O)C(C)(C)CCC1 | Dose-dependent effect | – | 270 nM | 1.9% | 65.9% | Active | 19.6% | Active
3 | CC1=C(/C=C/C(C)=C/C=C/C(C)=C/C(=O)O)C(C)(C)CCC1 [TRETINOIN] | Dose-dependent effect | – | 500 nM | 4.4% | 66.7% | Active | 17.6% | inactive
4 | CC1=C(/C=C/C(C)=C/C=C/C(C)=C/C(=O)NCCC(=O)O)C(C)(C)CCC1 | Dose-dependent effect | Active | 270 nM | 2.2% | 64% | Active | 14.8% | Active
